“Also recorded” adds a separate entry of the source. Where no end group is shown, it is not given here. [ ]: non-standard residue; d: D form. Cit = NC(=O)NCCC[C@H](N)C(=O)O
What was measured:
IFNγ:IL-4 = assay: T cell polarization by Th1:Th2 cytokine (IFNγ:IL-4) ratio, ELISA; format: cell-based; conditions: 5 μM peptide, splenocytes of PGIA BALB/c mice; baseline ratio around 3.2
Experimental: (§1) FIG. 3 illustrates T cell proliferation and T cell polarization (TH1:TH2) induced by P70, DerG-PG70 and J-PG70 peptides (Panel A). […] Panel B) T cell polarization by Th1:Th2 cytokine (IFNγ:IL-4) ratios. […] It is noted that these two responses are mutually exclusive. Amounts of IFNγ and IL-4 in culture fluid samples were determined by ELISA (enzyme-linked immunosorbent assay, a common test that uses antibodies and color change to measure protein amounts). The “baseline” value for this ratio, i.e., the value of this ratio in untreated (unpolarized) T cells, is around 3.2 (the black bar, “None,” in FIG. 3B). An increased ratio indicates relatively more IFNγ and/or less IL-4, which in turn indicates a shift towards a Th1 response and away from a Th2 response. A decreased value (below 3.2) indicates relatively more IL-4 and/or less IFNγ and thus a shift towards a Th2 response and away from a Th1 response. Cells were isolated from spleens by gently pushing the organ through a wire cell sieve mesh screen with a sterile 5 cc syringe plunger. The spleens were from BALB/c retired female breeder mice with PGIA (n=3), cultured individually for 5 days in the absence (None) or presence of the different designated peptides (5 μM each) on PG protein (10 m). As has been previously shown, the only cell type incorporating tritiated [^3H]thymidine into DNA are T cells. Therefore, proliferation of splenic T cells was measured in 96 well plates by use of [^3H]thymidine ([…]; specific activity: 2 Ci/mmol, Amersham, Arlington Heights, Ill.) incorporation from day 4 to 5 and expressed as a stimulation index based on the counts per minute normalized to the untreated control (panel A). Treatments were done in triplicate wells for the proliferation assay, and identical triplicate wells were used to harvest culture fluid at 48 hours for cytokine assays. The amounts of IFNγ (a Th1 cytokine) and IL-4 (a Th2 cytokine) in the media of the same cultures were determined by ELISA and expressed as ratios.
(§2) The effect of L.E.A.P.S. conjugates on T cell responses is shown in this example. J-PG70 conjugates modulated the proliferation of T cells isolated from spleen or lymph-node cells from wild type BALB/c mice with PGIA or naïve, PG-TCR-transgenic BALB/c mice.

[1] = system: splenic T cells from BALB/c mice with PGIA; assay: Splenic T cell proliferation, [3H]thymidine incorporation (stimulation index); format: cell-based; conditions: 5 μM peptide, splenocytes of PGIA BALB/c mice, p<0.05
Experimental: as §1, §2

spleen cells = assay: PG-specific spleen cell proliferation of vaccinated PGIA mice (in vitro assay); format: in vivo; conditions: cells from vaccinated PGIA mice, in vitro stimulation
Excerpt: (§3) The joint sections were stained with hematoxylin and eosin. One representative section per group is shown. […] Protection was associated with reduced PG-specific T cell proliferation.

[2] = system: proteoglycan-induced arthritis (PGIA); assay: L.E.A.P.S. peptide vaccination of PGIA mice, AI scores; format: in vivo; conditions: n=8 mice/group
Excerpt: In this example, in vivo experiments of efficacy and protection are shown in FIG. 4, which indicates groups from a first study of efficacy of vaccine candidates, and related controls.

[3] = system: ankle (tibio-talar) joints; assay: Histology of ankle (tibio-talar) joints of vaccinated PGIA mice; format: in vivo; conditions: PGIA mice 36 days after treatment, conjugate in adjuvant
Excerpt: Histology of ankle (tibio-talar) joints are shown in (A) normal mice and in (B-D) PGIA mice 36 days after undergoing treatment with L.E.A.P.S. conjugates. The normal joint is characterized by smooth cartilage surfaces on the tibia (Ti) and talus (Ta), inflammatory cell-free joint cavity (JC) and synovial tissue (ST). The ST is lined by a thin layer of cells and contains mainly fat tissue. Ankle joints from mice with PGIA shown in (B), treated with PBS in adjuvant, show evidence of synovial thickening (hyperplasia), inflammatory cell accumulation in the JC and ST, as well as partial erosion of cartilage surface (arrows).
as §3

[4] = system: Th1, Th2, Th17, and regulatory T cells (Tregs); assay: Proportions of Th1, Th2, Th17 and Tregs in spleen cell cultures from vaccinated mice (flow cytometry); format: in vivo; conditions: spleen cell cultures from vaccinated PGIA mice, n=4 mice/group
Experimental: The proportions of Th1, Th2, Th17, and regulatory T cells (Tregs) in spleen cell cultures from the vaccinated mice were determined by flow cytometry. Protection was associated with decreased proportions of Th1 and Th17 cells, and increases in Th2 cells and Tregs (p<0.05-0.001, Fisher's LSD test; n=4 mice/group). […] This is similar to the pattern of cytokines secreted by the cells.
In this example, the effects of L.E.A.P.S.-PG peptide conjugate vaccination on the proportions of splenic Th1, Th2, Th17, and regulatory T cells (Tregs) are shown in FIG. 8. The proportions of Th1, Th2, Th17, and regulatory T cells (Tregs) in spleen cell cultures from the vaccinated mice were determined by flow cytometry. Protection was associated with decreased proportions of Th1 and Th17 cells, and increases in Th2 cells and Tregs (p<0.05-0.001, Fisher's LSD test; n=4 mice/group).

IL-12p40 = assay: Intracellular expression of IL-12p40 by DCs (flow cytometry); format: cell-based, BALB/c mice
Experimental: FIG. 2 illustrates the effects of L.E.A.P.S.-PG conjugates on intracellular expression of IL-12p40 by DCs. DCs from BALB/c female retired breeder normal mice (n=3), having no PGIA disease (generated from bone marrow as described under FIG. 1) were incubated for 24 hours with the indicated peptides (5 μM each) at a cell density of 1×10^6 DCs/mL. DCs not receiving treatment (None) or treated with LPS (1 μg/ml) served as negative and positive controls, respectively. At the end of treatment, DCs were harvested and incubated with 1 μg/mL monensin (GolgiStop, BD Biosciences) for 4 hours to prevent cytokine secretion. Surface staining of DCs was done with fluoresecein isothiocyanate-(FITC) conjugated anti-CD11c antibody. The cells were then fixed and permeabilized using BD Biosciences' Cytofix/Cytoperm Kit. Intracellular IL-12 was detected with a phycoerythrin-(PE) labeled antibody to mouse IL-12p40 (eBioscience). Flow cytometry was carried out as described above. The number of IL-12p40+DCs was determined by gating on CD11c+ cells, and the results expressed as the % of IL-12p40+ of all CD11c+DCs. […] The error bars represent ±SEM.

Bone marrow-derived DCs = assay: DC maturation in vitro: MHC class II and CD86 expression by flow cytometry; format: cell-based; conditions: 5 μM peptide, 24 hours, bone marrow-derived DCs of naïve BALB/c mice
Experimental: FIG. 1 illustrates the effects of PG and L.E.A.P.S.-PG conjugates on DC maturation as indicated by MHC class II and CD86 expression (left and right panels respectively) following treatment (24 hours). […] MFI: mean fluorescence intensity (arbitrary units). […]
To generate DCs, the bone marrow cells were cultured for 9 days in the presence of recombinant mouse granulocyte-macrophage colony stimulating factor (GM-CSF, Sigma-Aldrich, St Louis, Mo.) at a dose of 200 U/ml (Egelston C., Kurko J., Besenyei T. et al. (2012) Suppression of dendritic cell maturation and T cell proliferation by synovial fluid myeloid cells from mice with autoimmune arthritis. Arthritis Rheum 64: 3179-3188). […] After the 24-hour culture with the indicated stimulants, the cells were washed with PBS containing 0.5% bovine serum albumin and 0.01% sodium azide (fluorescence activated cell sorter (FACS) buffer). […]

Substance: ATEGRVRVNSAYQDK (listed as Homo Sapiens) [PG70, proteoglycan aggrecan (G1) residues 70-84, reference compound]
- T cell polarization, Th1:Th2 cytokine (IFNγ:IL-4) ratio versus untreated (IFNγ:IL-4): significantly skewed towards a Th1 response
- T cell proliferation rate (stimulation index) versus untreated [1]: significantly increased

Substance: DGQEEKAGVVSTGLIGGGATEGRVRVNSAYQDK (Heteroconjugate Construct) [DerG-PG70]
- PG-specific spleen cell proliferation (spleen cells): much less responsive
- Day from which difference from the other groups became statistically significant ([2]; p<0.05 repeated measures ANOVA): ~12 days
- Disease severity (AI scores) ([2]; vaccine in adjuvant): dramatically suppressed; also recorded: therapeutically effective
- T cell polarization, Th1:Th2 cytokine (IFNγ:IL-4) ratio versus untreated (IFNγ:IL-4): significant shift towards Th2; also recorded: significantly skewed towards a Th2 response
- Histology of ankle joints (synovial hyperplasia, cell infiltration, cartilage erosion) [3]: only mild ST hyperplasia as shown in (D), but no cell infiltration or cartilage damage
- Immune deviation (proportions of Th1, Th2, Th17, Tregs) [4]: inducing immune deviation in favor of Th2 and Treg cells
- T cell proliferation rate (stimulation index) versus untreated [1]: no significant difference

Substance: DLLKNGERIEKVEGGGATEG(Cit)VRVNSAYQDK (DLLKNGERIEKVEGGGATEG[Cit]VRVNSAYQDK) [J-PG70Cit]
- T cell polarization, Th1:Th2 cytokine (IFNγ:IL-4) ratio versus untreated (IFNγ:IL-4): significant shift towards Th1; also recorded: significantly skewed towards a Th1 response
- T cell proliferation rate (stimulation index) versus untreated [1]: significantly increased
- % of IL-12p40+ of all CD11c+ DCs (IL-12p40; peptide 5 μM, 24 hours, untreated group 3.8%): 7.3%

Substance: DLLKNGERIEKVEGGGATEGRVRVNSAYQDK (Heteroconjugate Construct) [J-PG70, L.E.A.P.S. heteroconjugate of ICBL Peptide J linked to PG70 through a triglycine linker]
- T cell polarization, Th1:Th2 cytokine (IFNγ:IL-4) ratio versus untreated (IFNγ:IL-4): significantly skewed towards a Th1 response
- T cell proliferation rate (stimulation index) versus untreated [1]: higher T cell proliferation as compared to PG70; also recorded: significantly increased
- IL-12 intracellular expression in matured DCs (IL-12p40; 24 hours of incubation): modulated the IL-12 intracellular expression
- DC maturation (MHC class II and CD86 surface marker expression) (Bone marrow-derived DCs): led to matured dendritic cells
